Assay results taken from paper PMC8999917, “Structure–Activity Relationship of Synthetic Ginkgolic Acid Analogs for Treating Type 2 Diabetes by PTPN9 Inhibition” (International Journal of Molecular Sciences, 2022).

Target: T1, GPR120 (Homo sapiens, UniProt Q5NUL3)
T1 construct: host or cells: CHO cells
T1 sequence (Q5NUL3 1-361): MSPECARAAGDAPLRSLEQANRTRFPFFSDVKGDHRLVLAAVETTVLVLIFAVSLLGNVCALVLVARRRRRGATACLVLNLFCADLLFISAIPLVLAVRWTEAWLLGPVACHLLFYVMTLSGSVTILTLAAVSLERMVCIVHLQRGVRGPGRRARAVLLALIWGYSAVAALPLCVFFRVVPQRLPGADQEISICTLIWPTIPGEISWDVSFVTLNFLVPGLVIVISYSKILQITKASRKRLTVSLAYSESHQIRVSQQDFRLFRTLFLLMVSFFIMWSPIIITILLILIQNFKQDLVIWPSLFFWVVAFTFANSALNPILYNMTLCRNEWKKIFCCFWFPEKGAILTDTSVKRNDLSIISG
Assay: GPR120 SRE-Luc reporter gene assay in CHO cells
Assay type: cell-based
Conditions: 50 μM
From the text: Glucose uptake is regulated by three major mechanisms. First, through the activation of the Akt pathway, which promotes GLUT4 translocation via the activation of the signaling cascade involving the insulin receptor substrate (IRS) family and PI3 kinase through […] or G-protein-coupled receptors (GPCRs); second, through the upregulation of AMPK phosphorylation, which increases glucose uptake by inducing GLUT4 translocation to the plasma membrane; third, through the promotion of GLUT4 expression by PPARγ ligands. […] However, these compounds may induce GLUT4 expression and improve insulin sensitivity in the treated cells through their interactions with GPCR and/or PPARγ. Among GPCRs highly expressed in 3T3-L1 adipocytes and C2C12 muscle cells, GPR120 is the receptor that is most closely associated with glucose uptake. […] This was performed following a previously described method. In brief, CHO cells were plated to 96-well white plates (REF3610, Corning Life Sciences, NY, USA) in DMEM (HyClone^TM, Cytivalifescience, Seoul, Korea) supplemented with 10% FBS and 1% penicillin at a density of 1.5 × 10^4 cells/well. […] After incubation for another 24 h, luciferase activity was measured using the dual-luciferase assay system (Promega Korea, Seoul, Korea) according to the manufacturer’s instructions. […]

GPR120 transcriptional activity (SRE-Luc) | SMILES
No significant change | CCCCCCCCCCCCCOc1cccc(O)c1C(=O)O [Compound 1e]
No significant change | CCCCCCCCCCCCCCCOc1cccc(O)c1C(=O)O [Compound 1f]
